Assay results: patent US12233043B1, “Method of transdermal delivery of cannabinoid compositions” (Florida A&M University, priority 2022, dated 2025)
Like-named read-outs stand apart in the source and are kept apart here.

Columns and labels:
[1] = solution in propylene glycol, water and ethanol, Stinchcomb et al 2004, cited from earlier work
[2] = Pre-formulation solubility of CBD, THCV and CBG in solvents; type: physicochemical
Method: Pre-Formulation Studies: Solubility of CBD, THCV and CBG
The solubility of APIs including CBD, CBG and THCV was determined in various solvents including dimethyl sulfoxide (DMSO), N-Methyl-2-pyrrolidone (NMP), and PEG 400. Briefly, 100 mg of each API was dissolved in 0.5 ml of DMSO, NMP, PEG400 and vortexed until it dissolved completely. All the solutions were then visually observed for any undissolved particles. Further, all the solubility samples were centrifuged, and the supernatant were collected. Samples were then analyzed using HPLC for the amount of drug solubilized in each solvent.

[3] = test system: carrageenan-induced paw edema; test: Carrageenan-induced acute inflammatory (paw edema) model; type: in vivo, Sprague Dawley (SD) rats; conditions: as compared to control (no treatment)
Method: Carrageenan-Induced Acute Inflammatory Model
The anti-inflammatory effect of the gel formulations was assessed using carrageenan-induced paw edema model (Whiteley and Dalrymple 1998, Lee and Crosby 1999, Sammons, Raval et al. 2000, Cong, Khaziakhmetova et al. 2015) using Sprague Dawley (SD) rats. This model was deduced suitable for the evaluation of anti-inflammatory and anti-hyperalgesic drugs (Whiteley and Dalrymple 1998, Lee and Crosby 1999, Sammons, Raval et al. 2000, Cong, Khaziakhmetova et al. 2015). Edema was induced in male Sprague Dawley (SD) rats by sub-plantar injection of 50 μL of 0.1% λ-carrageenan (22049 SIGMA λ-Carrageenan plant-mucopolysaccharide, Sigma-Aldrich) gel in nuclease free water into the left hind paw of the animals. The inventors evaluated the intensity, development, and duration of the induced inflammation by measurements of rat paw volume using a digital plethysmometer (LE 7500, Panlab, Harvard Apparatus). Measurements were made prior to edema induction (base-line volume) and at 1, 2, 4, 6, 8, 12, and 24 hrs after sub-plantar carrageenan injection. The intensity of inflammation was assessed by calculating the percentage of increase in paw volume against the base-line measurements. Animals were divided into 4 groups of 4 rats each; group 1: control (no treatment); group 2: CBD gel (Gel A); group 3: CBG gel (Gel I); and group 4: THCV gel (Gel J). […] Therefore, placebo gels were not considered in the study.

[4] = In-vitro skin permeation study (IVPT), Franz diffusion cells; type: in vitro ADME, Human; conditions: for cumulative drug permeation: end of 72 hrs
Method: In-Vitro Skin Permeation Study
The in-vitro permeation and deposition studies were performed under occlusive conditions using jacketed Franz diffusion cells with a 0.636 cm2 permeation area and 5 mL receptor chamber volume. Human skin used was obtained from The New York Fire Fighter's skin bank and originated from the right and left posterior leg regions. Dermatomed, cryopressed split thickness skin with epidermis and dermis were delivered in plastic bags and stored at −80° C. until further use.
Skin was thawed in water for 45 minutes and was cut into small pieces and mounted on Franz cells. Receptor medium containing PBS with 25% (v/v) ethanol and 5% (v/v) Tween 80 was used for the IVPT study. 0.01% (w/v) sodium azide was added in the receiving media and sonicated for 20 mins to degasify it. To ensure the absence of bubbles in the receptor chamber, each cell was turned upside down to allow release of air though the sampling port. The cells were then left to equilibrate for about 10 mins before application of hydrogel samples. To begin the permeation experiment, 0.2 mL samples of each formulation was pipetted onto the donor compartment. The donor compartment of each cell was sealed with parafilm and perforated with a needle and the fastened to the receiving compartment using a clamp. Following the completion of the experimental setup, the Franz diffusion cells were blanketed to prevent photo-degradation of samples and the system kept at 32.3° C. with the use of its circulating water bath to maintain the skin surface temperature of 32° C. throughout the duration of the experiment. A 72 hr experimentation duration was employed with sampling times set at 24 hr increments. 1 mL samples were withdrawn from the receptor chamber via the sampling port and analyzed by HPLC, and the entire remaining receiving media in the receptor chamber was discarded and replaced with a fresh batch. The cumulative amount of drug permeated through the skin per unit area (Qp) was calculated from drug concentration in the receptor fluid and plotted as a function of time. The steady-state flux (J) was determined as the slope of the linear portion of the plot.

[5] = in DMSO, NMP, PEG 400 and lactic acid

Row | Structure (SMILES) | cumulative amount of CBD permeation ([1]; end of 48 hrs) [µg] | maximum flux ([1]; 48 hrs IVPT) [μg/cm^2/hr] | solubility [2, 5] | paw edema [3] | cumulative drug permeated in the receiving media ([4]; 24 hrs, human skin, gel 10% w/w) | cumulative drug permeation ([4]; human skin, gel 10% w/w) | solubility [2] | drug permeation ([4]; 24 hours post administration)
1 | C=C(C)[C@@H]1CCC(C)=C[C@H]1c1c(O)cc(CCCCC)cc1O [CBD, Cannabidiol, reference compound] | ~78.61 | ~1.47 | high solubility | significantly (p<0.0001) reduced | – | – | – | –
2 | CCCCCc1cc(O)c(C/C=C(\C)CCC=C(C)C)c(O)c1 [CBG, Cannabigerol] | – | – | – | significantly (p<0.0001) reduced | at least 136 μg/cm^2 | at least 321 μg/cm^2 | high solubility | –
3 | CCCc1cc(O)c2c(c1)OC(C)(C)[C@@H]1CCC(C)=C[C@@H]21 [THCV, Tetrahydrocannabivarin] | – | – | high solubility | significantly (p<0.0001) reduced | – | at least 2124 μg/cm^2 | – | at least 843 g/cm^2
